Key:
[1] = system: adenosine-sensitive receptors of erythrocytes; assay: Interaction with adenosine-sensitive receptors of erythrocytes (chemiluminescence of bound compound, adenosine competition); assay type: binding, mice of line BALB/c; settings: incubation at 37° C. vs 4° C., 10^−7 to 10^−5 M
Protocol: The interaction of compounds 2, 15, 21, 37 according to the invention with adenosine-sensitive receptors of erythrocytes of female mice of line BALB/c of an age of 8-12 months was investigated.
The dependence of the chemiluminescence intensity of the compounds according to the invention in an alkaline solution of 0.1N NaOH was determined in the presence of hydrogen peroxide being an initiator of chemiluminescence. The chemiluminescence was studied using the <<LKB>> chemiluminometer.
The erythrocytes of peripheral blood of the mice at first were washed three times by a normal physiological solution with centrifuging and then diluted in the Henks solution without glucose by 10 volumes of distilled water immediately used in the experiment.
At the first stage of the experiments the washed erythrocytes were incubated at a temperature of 37° C. or at 4° C. with solutions of the compounds according to the invention at a concentration of 10^−7 to 10^−5 M for 5-30 minutes, then washed by a normal physiological solution with repeated centrifuging in the cold. The obtained suspension of erythrocytes with the bound compounds according to the invention was placed in 0.1N solution of NaOH with addition of hydrogen peroxide at a final concentration of 10^−7 M. The chemiluminescence intensity was measured. A suspension of erythrocytes without compounds according to the invention was used as a control medium.
At the second stage of the experiments the washed erythrocytes were incubated at a temperature of 37° C. with solutions of the compounds according to the invention at a concentration of 10^−11 to 10^−8 M during 5-30 minutes, then washed twice with a normal physiological solution by centrifuging in the cold, the obtained suspension was mixed with an adenosine solution at a concentration of 10^−6 to 10^−4 and incubated for 15 minutes, then washed twice with a normal physiological solution with centrifuging in the cold. The obtained suspension of erythrocytes with the compounds according to the invention was placed in 0.1N solution of NaOH with addition of hydrogen peroxide in the final concentration of 10^−7 M. The chemiluminescence intensity was measured.

[2] = Morphine abstinence model: indicator enzymes ALT, AST, γ-GTP in blood plasma; settings: 20.0 mg/kg intramuscularly three times a day; for γ-GTP in blood plasma, Ci: control 6.261 ± 1.80; for ALT in blood plasma, Ci: control 106.76 ± 111.35; for AST in blood plasma, Ci: control 179.881 ± 11.94
Protocol: The experiments were carried out on rats in series of 7 animals on each compound according to the invention. Non-morphinized animal with not administered with compounds according to the invention were used as a control group. […] Then the rats were decapitated, the blood from somnolent arteries was collected in test tubes with solution EDTA as an anticoagulant, centrifuged at 1500 g for 15 minutes at 4° C.
To estimate possible hepatoprotective action of the compounds according to the invention under conditions of development of an oxidizing stress in the liver cells, effect of these compounds on the most important biochemical blood indexes, in particular, on the content in blood plasma of indicator enzyme of aspartateaminotransferase (AST), alanineaminotransferase (ALT), γ-glutamiletranspeptidase (γ-GTP) was investigated. The content of enzymes was estimated by their catalyzing activity in blood plasma.
The activity of AST, ALT and γ-GTP was determined by means of diagnostic sets DiaSys, Germany.

| Structure (SMILES) | dependence of the bond with erythrocytes on temperature [1] | γ-GTP in blood plasma, Ci ([2]; Control + compound) [mE/l] | ALT in blood plasma, Ci ([2]; Control + compound) [mE/l] | AST in blood plasma, Ci ([2]; Control + compound) [mE/l] | γ-GTP in blood plasma, Ci ([2]; control + Morphine + Compound) [mE/l] | ALT in blood plasma, Ci ([2]; control + Morphine + Compound) [mE/l] | AST in blood plasma, Ci ([2]; control + Morphine + Compound) [mE/l] |
| --- | --- | --- | --- | --- | --- | --- | --- |
| Nc1cnc2c(=O)n([C@@H]3O[C@H](CO)[C@@H](O)[C@H]3O)[nH]c(=O)c2n1.[Na] [Compound 21, sodium salt of 3-amino-7-(β-D-ribofuranosile)pyrazine[2,3-d]-6H-pyridazine-5,8-dione] | does not depend on the temperature | – | – | – | – | – | – |
| Nc1cccc2c(=O)[nH][nH]c(=O)c12.[Na] [Compound 15, sodium salt of 5-amino-benzo[d]-3H-pyridazine-1,4-dione] | does not depend on the temperature | 7.03 ± 2.82 | 113.48 ± 2.39 | 173.46 ± 5.63 | 10.69 ± 1.84 | 121.08 ± 5.04 | 195.57 ± 18.68 |
| O=c1[nH][nH]c(=O)c2ncccc12.[Li] [Compound 6, lithium salt of pyrido[2,3-d]-6H-pyridazine-5,8-dione] | – | 8.27 ± 2.12 | 114.5 ± 1.13 | 176.18 ± 3.26 | 12.52 ± 2.02 | 122.44 ± 2.01 | 198.34 ± 9.32 |
| O=c1[nH][nH]c(=O)c2c(Br)ncnc12.[K] [Compound 37, potassium salt of 4-bromine-pyrimido[4,5-D]-6H-pyridazine-5,8-dione] | does not depend on the temperature | 8.14 ± 2.64 | 113.84 ± 2.0 | 174.82 ± 4.91 | 10.32 ± 2.67 | 120.84 ± 5.20 | 193.58 ± 14.18 |
| Nc1ccnc2c(=O)n([C@@H]3O[C@H](CO)[C@@H](O)[C@H]3O)[nH]c(=O)c12 [Compound 2, 4-amino-7-(β-D-ribofuranosile)pyrido[2,3-d]-6H-pyridazine-5,8-dione] | does not depend on the temperature | – | – | – | – | – | – |
| O=c1[nH][nH]c(=O)c2nccnc12.[Li] [Compound 25, lithium salt of pyrazine[2,3-d]-6H-pyridazine-5,8-dione] | – | 7.57 ± 1.93 | 115.27 ± 1.09 | 177.34 ± 6.13 | 11.37 ± 1.54 | 121.96 ± 3.4 | 196.46 ± 15.34 |

— US8592421B2, “Cyclic bioisosters of purine system derivatives and a pharmaceutical composition based thereon” (priority 2003, dated 2013)
